Measurements taken from patent US20190060284A1, “PHARMACOLOGICAL MODULATORS OF NAV1.1 VOLTAGE-GATED SODIUM CHANNELS ASSOCIATED WITH MECHANICAL PAIN” (priority 2016, published 2019).
Entries after “also recorded” stand apart in the source; their conditions may differ. Where two headings read alike, the source gives them in different places.

Assays:
[1] = test system: NTG induced mechanical allodynia; test: NTG-induced hind paw mechanical allodynia (migraine model); assay type: in vivo, mouse; settings: for allodynia threshold compared to baseline threshold: 75 and 120 min
Method: NTG-induced hind paw mechanical allodynia. Mechanical thresholds were determined with von Frey monofilaments (VFF; eight filaments, range 0.008-2 g, Stoelting Co) using the Dixon up-and-down method^51. For drug testing, 48 naive C57Bl/6 male mice (20-30 g) were divided randomly to the following groups (n=12 mice per group): Vehicle/Cyclodextrin, Vehicle/Compound B 75 mg/kg, NTG/Cyclodextrin, and NTG/Compound B 75 mg/kg. Prior to testing all animals were handled for 1 week in the behavior room during mid-morning using the cupped hand technique^52. On each testing day, a maximum of 12 animals was used, divided equally into the four groups. Mice were confined in clear acrylic cages (8.7″×8.7″×5″) divided into four chambers, each on a raised wire mesh platform that allowed full access to the tested paws. Mice were acclimated for two hours, on the day of testing and one day prior. Mechanical thresholds were evaluated before (baseline), and 75 and 120 min after i.p. administration of 10 mg/kg NTG (or vehicle), in accordance with NTG's time-to-peak-effect (TPE) in this model (data not shown). 40% Cyclodextrin in saline or 75 mg/kg Compound B dissolved in 40% cyclodextrin in saline, was administered contralateral to NTG administration thirty minutes before the first post-NTG time point, in accordance with compound B's TPE. Each filament was applied perpendicular to the center of each of the hind paw five times, spaced 1 sec apart, starting with the middle VFF (0.4 g). In the absence of a response, the next VFF in the series was applied until a response was witnessed. Response to VFF was recorded as an immediate withdrawal of the tested hind paw to the applied stimulus, with or without an observed licking behavior. The withdrawal threshold was quantified as the mean of both hind paws. The experimenter was blind to the treatment group.

[2] = test system: splanchnic colonic afferents (high-threshold mechanoreceptors); test: Ex vivo gut-nerve single-unit recordings; assay type: cell-based, mouse; settings: for mechanosensitivity of colonic nociceptors: Compound B 100 μM; for Hm1a-induced mechanical hypersensitivity in the presence of the blocker: Hm1a 100 nM, ICA 500 nM or Compound B 100 μM
Method: In vitro single-unit extracellular recordings of action potential discharge were made from splanchnic colonic afferents. Recordings were made from healthy or CVH mice using standard protocols^61-63. Baseline mechanosensitivity was determined in response to application of a 2 g von frey hair (vfh) probe to the afferent receptive field for 3 seconds. This process was repeated 3-4 times, separated each time by 10 seconds. Mechanosensitivity was then re-tested after the application of Hm1a (100 nM) or the Nav1.1 blocker ICA-121432 (500 nM) or a combination of both ICA-121432 (500 nM) and Hm1a (100 nM). Data are presented as spikes/s and are expressed as mean±SEM.
Colitis was induced by administration of TNBS as described previously^62,63. Briefly, 13 week old anaesthetized mice were administered an intra-colonic enema of 0.1 mL TNBS (130 μg/mL in 30% EtOH) via a polyethylene catheter^62,63,66. Histological examination of mucosal architecture, cellular infiltrate, crypt abscesses, and goblet cell depletion confirmed significant TNBS-induced damage by day 3 post-treatment, which largely recovered by day 7, and fully recovered by 28 days. […] As such, they are termed ‘chronic visceral hypersensitivity’ (CVH) mice^62,63,66,68.
Ex vivo single-unit extracellular recordings of action potential discharge were made from splanchnic colonic afferents. Recordings were made from healthy or CVH mice using standard protocols (e.g. Brierley, S. M., Jones, R. C., III, Gebhart, G. F. & Blackshaw, L. A. Splanchnic and pelvic mechanosensory afferents signal different qualities of colonic stimuli in mice. Gastroenterology 127, 166-178 (2004)). Baseline mechanosensitivity was determined in response to application of a 2-g Von Frey hair probe to the afferent receptive field for 3 s. This process was repeated 3-4 times, separated each time by 10 s. Mechanosensitivity was then re-tested after the application of Hm1a (100 nM) or the Nav1.1 blocker compound B (100 μM) or a combination thereof. Instantaneous frequency is defined as the inverse of the time interval between an action potential and the previous action potential. Group data are presented as spikes per second and are expressed as mean±s.e.m.

[3] = test system: cultured somatosensory neurons (TG, DRG); test: Ratiometric calcium imaging of cultured sensory neurons; assay type: cell-based, mice or rats
[4] = test system: mechanical response thresholds; test: Von Frey mechanical response thresholds after intraplantar toxin; assay type: in vivo, mouse; settings: 500 nM in 10 μl intraplantar, WT mice, 30 minutes after injection
Method: For behavioral experiments in FIG. 4, adult mice (6-12 weeks) were used. Male and female mice were first considered separately in hindpaw nocifensive response experiments. […] Therefore, male and female behavioral responses were pooled and subsequent experiments were performed on both male and female mice for CKO and WT littermate experiments, or only male mice for other conditions (e.g. Cap ablation). Nocifensive responses were recorded during a 20 minute observation period immediately following intraplantar injections (10 μl PBS with or without 5 μM Hm1a). Licking/biting behavior was scored as seconds of behavior with the experimenter blinded to injection condition and experimental cohort (WT, CKO or Cap Ablated mice). Hargreaves and Von Frey tests were performed 30 minutes after intraplantar injection of 500 nM Hm1a or Hm1b. I.t. cap ablation was performed as previously described^34, and i.t. cap treated mice were tested on a hot plate to ensure ablation of TRPV1+afferents. Ablation was also confirmed by histology.

[5] = Hm1a-sensitive P0 mouse TG neurons

In the case of `Cc1c(C(N)=O)nnn1Cc1ccccc1` [Compound B], the “NTG induced tactile allodynia” value ([1]; Compound B 75 mg/kg in 40% cyclodextrin in saline) was “able to reverse NTG induced tactile allodynia”, the “allodynia threshold compared to baseline threshold” value ([1]; NTG 10 mg/kg i.p. + Compound B 75 mg/kg) was “no significant difference” and the “allodynia threshold compared to baseline threshold” value ([1]; Vehicle + Compound B 75 mg/kg) was “no significant difference”. The “mechanosensitivity of colonic nociceptors” value (shortened to “mechanosensitivity”) ([2]; CVH mice, ICA-121431 500 nM) was “reduced mechanosensitivity in a sub-population; also recorded: inhibition of mechanosensitivity of a subpopulation”, the “Hm1a-induced mechanical hypersensitivity in the presence of the blocker” value (from here on “Hm1a-induced mechanical hypersensitivity”) ([2]; CVH mice) was “not affected by the presence of Hm1a; also recorded: prevents Hm1a-induced potentiation” and the “mechanosensitivity” value ([2]; healthy mice) was “inhibits the mechanosensitivity; also recorded: inhibition of mechanosensitivity of a subpopulation”. The “Hm1a-induced mechanical hypersensitivity” value ([2]; healthy mice) was “inhibits the sensitizing effect of Hm1a toxin; also recorded: prevents Hm1a-induced potentiation”.

With `O=C(Nc1ccc(S(=O)(=O)Nc2nccs2)cc1)C(c1ccccc1)c1ccccc1` [ICA-121431] the Hm1a-evoked calcium responses ([3]; blocker 500 nM, Hm1a 500 nM, embryonic DRG and P0 mouse TG cultures) was “greatly diminishes”, the “responses to SGTx1” value ([3]; in presence of ICA-121431) was “only partially blocks” and the “CVH sensitized fibers with reduced mechanosensory responses” value ([2]; CVH mice, blocker 500 nM) was 70%. The “subpopulation of CVH colonic afferents inhibited (inhibited/fibers)” value ([2]; CVH mice, blocker 500 nM) was 7/10, the “mechanosensitivity” value ([2]; CVH mice, ICA-121431 500 nM) was “levels resembling those of baseline controls” and the “Hm1a-induced mechanical hypersensitivity” value ([2]; CVH mice) was “blocks the sensitizing effects of Hm1a”. For the same compound, the “Hm1a-induced mechanical hypersensitivity” value ([2]; CVH mice, listed as ICA-121432) was “failed to induce mechanical hypersensitivity”, the “fibers in which mechanical responses are reduced and Hm1a sensitization blocked” value ([2]; healthy mice, blocker 500 nM) was 50% and the “population of colonic afferents inhibited (inhibited/fibers)” value ([2]; healthy mice, blocker 500 nM) was 5/10. The “Hm1a-induced mechanical hypersensitivity” value ([2]; healthy mice) was “blocks Hm1a sensitization” and the “Hm1a-induced mechanical hypersensitivity” value ([2]; healthy mice, listed as ICA-121432) was “failed to induce mechanical hypersensitivity”.

In the case of `NC1=N[C@H](O)[C@H]2[C@H]3O[C@]4(O)O[C@@H]([C@@H](O)[C@@]2(N1)[C@@H]4O)[C@]3(O)CO` [Tetrodotoxin], the Hm1a-evoked calcium responses [3] was “blocked”.

In the case of `COc1cc(CNC(=O)CCCC/C=C/C(C)C)ccc1O` [capsaicin], the “toxin-sensitive P0 neurons that respond to the agonist (in words)” value [3, 5] was “only a third”.

For `NC(N)=NC(N)=Nc1cccc(Cl)c1` [mCPBG], the “toxin-sensitive cells that also respond to the agonist” value [3, 5] was 52%.

For `CC1CCC(C(C)C)C(O)C1` (centres unmarked) [menthol], the “toxin-sensitive cells that also respond to the agonist” value [3] was 38%.

`C=CCN=C=S` [mustard oil] was tested, and the “toxin-sensitive cells that also respond to the agonist” value [3, 5] was less than 13%.

`CCCCC[C@H](O)/C=C/[C@H]1[C@H](O)CC(=O)[C@@H]1C/C=C\CCCC(=O)O` [prostaglandin E2] was tested, and the “percentage of toxin sensitive cells” value ([3]; sensitization of adult neurons prior to toxin exposure) was “greatly enhances”.

In the case of SGTx1, the “cohort of neurons excited compared with Hm1a” value ([3]; TG and embryonic DRG neurons) was “excites a larger cohort of TG and embryonic DRG neurons than Hm1a”.

For δ-theraphotoxin-Hm1b, the “sensitization to mechanical stimulation” value [4] was “Equivalent mechanical sensitization”.
